Assay results from patent US20150376198A1, “MODULATORS OF VASOPRESSIN RECEPTORS WITH THERAPEUTIC POTENTIAL” (priority 2013, published 2015).
Read-outs that look alike come from different tables or passages of the source.

Key:
OT receptor = target: T1, OT receptor (Homo sapiens, UniProt P30559); assay: OT receptor binding (primary binding at 10 μM and Ki); conditions: for inhibition at 10 µM: read-out: OT binding, mean % inhibition
T1 sequence (P30559 1-389): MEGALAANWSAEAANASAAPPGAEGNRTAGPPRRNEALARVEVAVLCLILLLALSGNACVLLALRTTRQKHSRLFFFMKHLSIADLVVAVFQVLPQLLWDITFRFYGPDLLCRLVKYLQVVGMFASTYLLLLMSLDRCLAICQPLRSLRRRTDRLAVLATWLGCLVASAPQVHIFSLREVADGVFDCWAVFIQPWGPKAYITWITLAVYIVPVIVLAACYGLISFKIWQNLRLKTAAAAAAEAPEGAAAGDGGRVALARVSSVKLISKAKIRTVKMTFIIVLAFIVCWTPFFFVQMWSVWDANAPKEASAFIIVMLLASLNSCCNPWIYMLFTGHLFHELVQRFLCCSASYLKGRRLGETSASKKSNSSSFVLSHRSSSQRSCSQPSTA
Method: (§1) The default concentration for primary binding experiments was 10 μM.
(§2) See Examples for further details.

V2 receptor = V2 receptor (Homo sapiens, UniProt P30518); assay: V2 receptor binding (primary binding at 10 μM and Ki); conditions: for inhibition at 10 µM: read-out: V2 binding, mean % inhibition
Sequence of V2 receptor (P30518 whole entry): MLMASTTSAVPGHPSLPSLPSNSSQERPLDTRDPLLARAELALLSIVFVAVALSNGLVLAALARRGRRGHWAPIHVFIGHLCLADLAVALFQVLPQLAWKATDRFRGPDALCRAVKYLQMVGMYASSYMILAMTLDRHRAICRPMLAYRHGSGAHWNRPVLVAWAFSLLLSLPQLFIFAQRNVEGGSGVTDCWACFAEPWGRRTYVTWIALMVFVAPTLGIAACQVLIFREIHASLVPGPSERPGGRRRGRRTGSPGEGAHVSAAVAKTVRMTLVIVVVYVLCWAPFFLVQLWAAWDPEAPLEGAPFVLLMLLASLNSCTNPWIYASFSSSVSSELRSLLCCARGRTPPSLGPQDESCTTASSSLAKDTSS
Method: (§3) Data represent Ki values (nM) or mean % inhibition (indicated as %) for exemplary compounds of formula (I) tested versus receptor subtypes.
as §1, §2

human V1a receptor = target: T2, human V1a receptor (Homo sapiens, UniProt P37288); assay: Vasopressin V1a receptor binding assay (3H-AVP competition, CHO cells); conditions: for inhibition at 10 µM: read-out: V1A binding, mean % inhibition
T2 construct: expressed in transfected cells; host or cells: CHO cells (G418-selected hV1a cell line)
T2 sequence (P37288 whole entry): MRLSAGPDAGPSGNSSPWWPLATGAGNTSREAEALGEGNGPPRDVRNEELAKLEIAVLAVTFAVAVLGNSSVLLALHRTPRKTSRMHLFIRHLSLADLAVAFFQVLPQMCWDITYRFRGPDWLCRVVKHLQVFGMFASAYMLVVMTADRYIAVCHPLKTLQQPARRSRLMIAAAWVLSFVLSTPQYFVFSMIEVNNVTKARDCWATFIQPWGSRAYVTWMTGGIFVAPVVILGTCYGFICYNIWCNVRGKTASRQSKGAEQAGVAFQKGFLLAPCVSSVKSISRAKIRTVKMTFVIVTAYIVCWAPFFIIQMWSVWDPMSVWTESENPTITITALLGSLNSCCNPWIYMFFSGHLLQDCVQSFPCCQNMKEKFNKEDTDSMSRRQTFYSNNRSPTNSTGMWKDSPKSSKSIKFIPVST
Method: as §3, §1
Vasopressin V1a Receptor Binding Assay.
A cell line expressing the human Via receptor in CHO cells is used. The hV1a cDNA sequence is described by Thibonnier et al., (1994), and the expression method is the same as described by Morel et al. (1992). The hV1a cell line is grown in alpha-MEM with 10% fetal bovine serum and 250 ug/ml G418 (Gibco, Grand Island, N.Y., USA). For competitive binding assay, hV1a cells are plated into 6-well culture plate at 1:10 dilution from a confluency flask, and maintained in culture for at least two days. Culture medium is then removed, cells washed with 2 ml binding buffer (35 mM Hepes, 0.25% BSA, 1× DMEM, PH=7.0). To each well, 990 μl binding buffer containing 1 nM 3H-AVP is added, followed by 10 μl series diluted Example compounds dissolved in DMSO. All incubations are done in triplicate and dose-inhibition curves consisting of total binding (DMSO) and 5 concentrations (0.1, 1.0, 10, 100, and 1000 nM) of test agents encompassing the IC50. 100 nM cold AVP (Sigma) is used to assess non-specific binding. Cells are incubated for 45 minutes at 37° C., assay mixture is removed and each well is washed three times with PBS (pH=7.4). 1 ml 2% SDS was added per well, plates were let sit for 30 minutes. The whole content of a well is transferred to a scintillation vial. Each well is rinsed with 0.5 ml PBS which is then added to the corresponding vial. Scintillation fluid (Ecoscint) is then added at 3 ml per vial. Samples are counted in a liquid scintillation counter (Beckman LS3801). IC50 values are calculated by Prism Curve fitting software.

[1] = target: human Arginine Vasopressin Receptor 1a (AVPR1a) (Homo sapiens, UniProt P37288); assay: cell-based; conditions: read-out: V1a-R IC50
Sequence of human Arginine Vasopressin Receptor 1a (AVPR1a) (P37288 whole entry): as above

Compound	Ki (OT receptor; read-out: OT binding Ki)	inhibition at 10 µM (V2 receptor; at 10 μM)	Ki (human V1a receptor)	further results
CCN(C(=O)N1CCN(c2ncccc2C)CC1)c1ccc(OC)cc1 [Compound 21]	204 nM	24.3%	116 nM	–
CCN(C(=O)N1CCN(C(=O)C23CC4CC(CC(C4)C2)C3)CC1)c1ccc(OC)cc1 [Compound 25]	–	40.4%	–	inhibition at 10 µM (OT receptor; at 10 μM): 40.7%; Ki (human V1a receptor; read-out: V1A binding Ki): 3880 nM
CCN(C(=O)N1CCN(c2ccccn2)CC1)c1ccc(OC)cc1 [Compound 17]	118 nM	17.9%	79 nM	–
CCN(C(=O)N1CCN(Cc2ccccc2)CC1)c1ccc(OC)cc1 [Compound 8]	1180 nM	–	–	inhibition at 10 µM (human V1a receptor): 35.1%
CCN(C(=O)N1CCN(c2ncccc2Cl)CC1)c1ccc(OC)cc1 [Compound 16]	2320 nM	12.7%	1160 nM	–
CCN(C(=O)N1CCN(c2ncccn2)CC1)c1ccc(OC)cc1 [Compound 22]	–	6.6%	–	inhibition at 10 µM (OT receptor; at 10 μM): 27.7%; Ki (human V1a receptor; read-out: V1A binding Ki): 1590 nM
COCCN(C(=O)N1CCN(c2ccccc2C)CC1)c1ccc(OC)cc1 [Compound 4]	21 nM	24.5%	10 nM	–
Cc1ccc(N(CC2CC2)C(=O)N2CCN(c3ccccc3C)CC2)cc1 [Compound 26]	4.8 nM	–	3 nM	Ki (V2 receptor): 1860 nM
COc1ccc(N(CC2CC2)C(=O)N2CCN(c3ccccc3C)CC2)cc1 [Compound 3]	1 nM	–	0.9 nM	Ki (V2 receptor): 708 nM
COc1ccc(NC(=O)N2CCN(c3ccccc3C)CC2)cc1 [Compound 1]	–	–	–	inhibition at 10 µM (OT receptor; at 10 μM): 12.8%; inhibition at 10 µM (human V1a receptor): 34.1%
Cc1ccccc1N1CCN(C(=O)N(CC2CC2)c2ccc(OC(F)(F)F)cc2)CC1 [Compound 29]	61 nM	–	12 nM	Ki (V2 receptor): 159 nM
CCN(C(=O)N1CCN(C(=O)c2ccccc2)CC1)c1ccc(OC)cc1 [Compound 9]	–	–	–	inhibition at 10 µM (OT receptor; at 10 μM): 22.3%
COc1ccc(N(CC2CC2)C(=O)N2CCN(c3ncc(Cl)cc3Cl)CC2)cc1 [Compound 33]	4.1 nM	–	3 nM	Ki (V2 receptor): 205 nM
CCN(C(=O)N1CCN(c2ncccc2C#N)CC1)c1ccc(OC)cc1 [Compound 19]	757 nM	5.7%	880 nM	–
CCN(C(=O)C1CCN(c2ncccc2C(F)(F)F)CC1)c1ccc(OC)cc1 [Compound 24]	265 nM	23.3%	1170 nM	–
COC(=O)CC(NC(=O)OC(C)(C)C)C(=O)N1CCN(c2ccccc2C)CC1 (centres unmarked) [Compound 12]	–	–	–	inhibition at 10 µM (OT receptor; at 10 μM): 10.6%
CCN(C(=O)N1CCN(C(=O)OC(C)(C)C)CC1)c1ccc(OC)cc1 [Compound 10]	–	–	–	inhibition at 10 µM (OT receptor; at 10 μM): 17.1%; inhibition at 10 µM (human V1a receptor): 2.2%
COc1ccc(-n2c(C)nnc2-c2ccc(CNC(=O)N3CCN(Cc4cc(O)cc(O)c4)CC3)c(C)c2)cn1 [Compound 14]	–	5.8%	–	inhibition at 10 µM (OT receptor; at 10 μM): 19.6%
COc1ccccc1N1CCN(C(=O)N(CC2CC2)c2ccc(OC(F)(F)F)cc2)CC1 [Compound 32]	2.3 nM	–	11 nM	Ki (V2 receptor): 1700 nM
CCN(C(=O)N1CCN(c2ccccc2C)CC1)c1ccc(OC)cc1 [Compound 2]	13 nM	33.6%	10 nM	–
COc1ccc(N(CC2CC2)C(=O)C2CCN(Cc3ccccc3Cl)C2)cc1 (centres unmarked) [Compound 35]	37.4 nM	< 50%	71 nM	–
CCN(C(=O)N1CCCN(c2ncccc2C(F)(F)F)CC1)c1ccc(OC)cc1 [Compound 20]	329 nM	33%	851 nM	–
COc1ccc(N(CC2CC2)C(=O)C2CCN(Cc3ccccc3C(F)(F)F)C2)cc1 (centres unmarked) [Compound 34]	–	–	19 nM	Ki (OT receptor): 24.5 nM; Ki (V2 receptor): 542 nM

Compound	Ki (OT receptor; read-out: OT binding Ki)	inhibition at 10 µM (V2 receptor; at 10 μM)	Ki (human V1a receptor)	further results
CCN(C(=O)N1CCN(c2ncccc2C(F)(F)F)CC1)c1ccc(OC)cc1 [Compound 6]	45 nM	33%	113 nM	–
Cc1cc(-c2nnc(C)n2-c2ccccc2)ccc1CNC(=O)N1CCN(Cc2cc(O)cc(O)c2)CC1 [Compound 11]	–	–	–	inhibition at 10 µM (OT receptor; at 10 μM): 14.8%
Cc1cc(C(=O)N(CC2CC2)CC2CCCO2)ccc1CNC(=O)N1CCN(Cc2cc(O)cc(O)c2)CC1 (centres unmarked) [Compound 13]	–	13.6%	–	inhibition at 10 µM (OT receptor; at 10 μM): 16.1%
Cc1ccccc1N1CCN(C(=O)N(CC2CC2)CC2CCCO2)CC1 (centres unmarked) [Compound 5]	326 nM	17.7%	785 nM	–
COc1ccccc1N(CC1CC1)C(=O)N1CCN(c2ccccc2C)CC1 [Compound 28]	51 nM	–	107 nM	Ki (V2 receptor): 5010 nM
CCN(C(=O)C1CCN(C(=O)OCc2ccccc2)CC1)c1ccc(OC)cc1 [Compound 18]	–	–	–	inhibition at 10 µM (OT receptor): 2.8%; inhibition at 10 µM (V2 receptor): 12.8%; inhibition at 10 µM (human V1a receptor): 19%
Cc1cnc(N2CCN(C(=O)N(CC3CC3)c3ccc(Cl)cc3)CC2)nc1 [Compound 156]	–	–	–	IC50 [1]: 17 nM
Cc1cccnc1N1CCN(C(=O)N2CCCCc3cc(Cl)ccc32)CC1 [Compound 124]	–	–	–	IC50 [1]: 40 nM
COc1ccc(N(CC2CC2)C(=O)N2CCN(c3ccccc3C(F)(F)F)CC2)cc1 [Compound 30]	2.3 nM	–	11 nM	Ki (V2 receptor): 75 nM
O=C(c1ccc(F)c(F)c1)N1CCC(C(=O)N2CCCCc3cc(Cl)ccc32)CC1 [Compound 90]	–	–	–	IC50 [1]: 1520 nM
O=C(C1CCN(c2nc3ccc(Cl)cc3o2)CC1)N1CCCCc2cc(Cl)ccc21 [Compound 214]	–	–	–	IC50 [1]: 45 nM
O=C(N1CCN(c2ncccc2Cl)CC1)N1CCCCc2cc(Cl)ccc21 [Compound 125]	–	–	–	IC50 [1]: 57 nM
Cc1cc(N2CCC(C(=O)N3CCCCc4cc(Cl)ccc43)CC2)ncc1Cl [Compound 220]	–	–	–	IC50 [1]: 7 nM
O=C(N1CCN(c2ccccc2Cl)CC1)N1CCCCc2cc(Cl)ccc21 [Compound 139]	–	–	–	IC50 [1]: 35 nM
Cc1ccccc1N1CCN(C(=O)N(CC2CC2)c2ccc(Cl)cc2)CC1 [Compound 27]	2.3 nM	–	1 nM	Ki (V2 receptor): 3780 nM
O=C(C1CCN(c2ccccn2)CC1)N(CC1CC1)c1ccc(Cl)cc1 [Compound 154]	–	–	–	IC50 [1]: 15 nM
O=C(OCc1ccccc1)N1CCC(C(=O)N(CC2CC2)CC2CCCO2)CC1 (centres unmarked) [Compound 15]	–	12.8%	–	inhibition at 10 µM (OT receptor; at 10 μM): 2.8%; inhibition at 10 µM (human V1a receptor): 19%
O=C(c1ccncc1)N1CCC(C(=O)N2CCCCc3cc(Cl)ccc32)CC1 [Compound 93]	–	–	–	IC50 [1]: 5810 nM
O=C(N1CCC(O)(c2ccccc2)CC1)N1CCCCc2cc(Cl)ccc21 [Compound 133]	–	–	–	IC50 [1]: 137 nM
COc1ccc(N(CC2CC2)C(=O)N2CCN(c3cc(Cl)ccc3C)CC2)cc1 [Compound 31]	6 nM	–	5 nM	Ki (V2 receptor): 7340 nM
O=C(C1CCN(c2ncc(Cl)cn2)CC1)N(CC1CC1)c1ccc(Cl)cc1 [Compound 167]	–	–	–	IC50 [1]: 195 nM
Cc1cc(C)nc(N2CCN(C(=O)N(CC3CC3)c3ccc(Cl)cc3)CC2)n1 [Compound 158]	–	–	–	IC50 [1]: 24 nM
N#Cc1ccc(C(=O)N2CCC(C(=O)N3CCCCc4cc(Cl)ccc43)CC2)c(F)c1 [Compound 114]	–	–	–	IC50 [1]: 9480 nM
